Here are results for four molecules from BindingDB's records for doi:10.3109/14756366.2011.604852 (Erzincan University, 2012).

As a reminder, the pIC50 is −log10 of the IC50, conventionally taken in molar units. The low end stands for a high IC50, the high end for a low IC50. The pKi is the Ki on a negative log10 scale, so that one unit is a factor of ten. Read a low pKi as a large Ki.

One experiment has as its target Carbonic anhydrase 1 (Homo sapiens, UniProt P00915). The experiment can be described thus: Esterase Activity Assay. The note with it: pH 7.4; 25 °C. How it is done:
(§1) CA activity was assayed according to method of Verpoorte et al. [Verpoorte et al., J. Biol. Chem., 242:4221-4229] described previously by Innocenti et al. [Innocenti et al., Bioorg. Med. Chem., 18:2159-2164; Innocenti et al., Bioorg. Med. Chem. Lett., 20:5050-5053] CA activity was determined by following thechange in absorbance at 348 nm of 4-nitrophenylacetate (NPA) to 4-nitrophenylate ion over a period of 3 min at 25°C using a spectrophotometer (CHEBIOS UV-VIS). The enzymatic reaction, in a total volume of 3.0 mL, contained 1.4 mL 0.05 M Tris-SO4 buffer (pH 7.4), 1 mL, 3 mM 4-nitrophenylacetate, 0.5 mL H2O and 0.1 mL enzyme solution. A reference measurement was obtained by preparing the same cuvette without enzyme solution. The inhibitory effects of ampicillin sulfate, ceftriaxone, ceftizoxime, ranitidine were examined. All compounds were tested in triplicate at each concentration used. Different inhibitor concentrations were used. HCA-I enzyme activities were measured for ceftriaxone (0.003-0.033 mM), ceftizoxime (0.017-0.096 mM), ranitidine (0.026-0.053 mM) at cuvette concentrations and HCAII enzyme activities were measured for ampicillin sulfate (0.038-0.095 mM), ceftriaxone (0.003-0.021 mM), ceftizoxime (0.026-0.061 mM) and ranitidine (0.032-0.058 mM) at cuvette concentrations.

For a further experiment, the target named is Carbonic anhydrase 2 (Homo sapiens, UniProt P00918). The experiment can be described thus: Esterase Activity Assay. The following applies: pH 7.4; 25 °C. The method, then: as §1

pIC50, pKi: −log10 of the molar value.

Sequence of Carbonic anhydrase 1 (P00915 whole entry): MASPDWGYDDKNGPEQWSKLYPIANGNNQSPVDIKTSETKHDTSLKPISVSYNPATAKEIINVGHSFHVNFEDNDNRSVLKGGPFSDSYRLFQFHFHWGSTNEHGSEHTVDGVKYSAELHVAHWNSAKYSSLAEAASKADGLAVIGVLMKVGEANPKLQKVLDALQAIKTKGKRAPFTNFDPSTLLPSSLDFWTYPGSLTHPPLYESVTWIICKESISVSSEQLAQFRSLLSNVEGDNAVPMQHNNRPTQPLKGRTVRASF

At Carbonic anhydrase 1, `CO/N=C(\C(=O)N[C@@H]1C(=O)N2C(C(=O)O)=CCS[C@H]12)c1csc(N)n1` [Ceftizoxime] had a negative-log IC50 (pIC50) of 4.10 and a pKi of 4.06. For the same molecule, on Carbonic anhydrase 2, the negative logarithm of the IC50 (pIC50) is 4.10 and the pKi is 4.29.
At Carbonic anhydrase 1, `CO/N=C(\C(=O)N[C@@H]1C(=O)N2C(C(=O)O)=C(CSc3nc(=O)c(=O)[nH]n3C)CS[C@H]12)c1csc(N)n1` [(6R,7R)-7-{2-(2-Amino-thiazol-4-yl)-2-[(Z)-methoxyimino]-acetylamino}-3-(2-methyl-5,6-dioxo-1,2,5,6-tetrahydro-[1,2,4]triazin-3-ylsulfanylmethyl)-8-oxo-5-thia-1-aza-bicyclo[4.2.0]oct-2-ene-2-carboxylic acid] had a pIC50 of 4.57 and a pKi of 4.55. At Carbonic anhydrase 2, this molecule had a pIC50 of 4.68 and a pKi of 4.80.
`CC1(C)S[C@@H]2[C@H](NC(=O)[C@H](N)c3ccccc3)C(=O)N2[C@H]1C(=O)O` [AY-6108]: at Carbonic anhydrase 2, the pIC50 is 4.25 and the pKi is 4.08.
On Carbonic anhydrase 1, `CN/C(=C\[N+](=O)[O-])NCCSCc1ccc(CN(C)C)o1` [Ranitidine] showed a pIC50 of 4.26 and a pKi of 4.26. On Carbonic anhydrase 2, this molecule had a pIC50 of 4.18 and a pKi of 4.53.
